Laboratory results: US20260191849A1, “PHARMACEUTICAL COMPOSITION FOR TREATMENT OF CANCER” (WIGEN BIOMEDICINE TECHNOLOGY (SHANGHAI) CO., LTD., priority 2022, published 2026)
pIC50: −log10 of the molar value. Like-named read-outs stand apart in the source and are kept apart here.

How the values were obtained:
HT29 cells [1] = test: Combined use of compound 257, AMG650 or Compound A with PLK1 inhibitor on HT29 cell viability, 168 h (Biological Example 19); assay type: cell-based; details: for pIC50: HT29 cells
Protocol: HT29 cells were seeded on a 384-well plate at 3000 cells/well.

[2] = system: HT29 subcutaneous xenograft tumors; test: In vivo pharmacodynamic study, HT29 subcutaneous xenograft tumor model of mice (Biological Example 3); parameters: species or system BALB/c nude mice; details: 80 mg/kg intragastric once daily, day 28
Protocol: BALB/c nude mice were each inoculated subcutaneously with 5×10^6 HT29 cells on the left dorsal side. After the tumors grew to 100-150 mm^3, the mice were randomly divided into the following groups for intragastric administration once daily: group 1: vehicle control group; group 2: compound 661 (80 mg/kg); group 3: compound 669 (80 mg/kg); group 4: compound 677 (80 mg/kg); group 5: compound 714 (80 mg/kg); group 6: compound 727 (80 mg/kg); group 7: compound 740 (80 mg/kg); and group 8: AMG65 (80 mg/kg). The tumor volume was measured twice weekly and at the end of administration. […].

HCT116 cells = test: Combined use of compound 257, AMG650 or Compound A with PLK1 inhibitor on HCT116 cell viability, 168 h (Biological Example 20); assay type: cell-based
Protocol: HCT116 cells were seeded on a 384-well plate at 3000 cells/well. After overnight adherence culture, DMSO or compound 257, AMG650, or Compound A serially diluted in a 1:5 ratio from 400 nM and a PLK1 inhibitor with a specified concentration were added. The cell viability was assessed 168 h after dosing by measuring the intracellular ATP content. The inhibition percentages of viable cells by the compounds were calculated by comparing with the DMSO group, and the IC50 values were also calculated.

[3] = system: HT29 subcutaneous xenograft tumors; test: In vivo pharmacodynamic study of combination therapy, HT29 subcutaneous xenograft tumor model of mice (Biological Example 14); parameters: species or system BALB/c nude mice
Excerpt: BALB/c nude mice were each inoculated subcutaneously with 5×10^6 HT29 cells on the left dorsal side. After the tumors grew to 100-150 mm^3, the mice were randomly divided into the following groups for intragastric administration once daily for 14 consecutive days: group 1: vehicle control group; group 2: AMG650 (50 mpk, PO, QD); group 3: compound 714 (50 mpk, PO, QD); group 4: AMG650 (50 mpk, PO, QD)+Onvasertib (20 mpk, PO, QD); group 5: compound 714 (50 mpk, PO, QD)+Onvasertib (20 mpk, PO, QD); and group 6: Onvasertib (20 mpk, PO, QD). The administration to all the groups was stopped on day 15, and the tumor growth continued to be observed until day 21. The tumor volume was measured twice weekly and at the end of administration. […]

HT29 cells [4] = test: Combined use of compound 257 or AMG650 with PLK1 inhibitor (Volasertib) on HT29 cell viability, 168 h (Biological Example 22); assay type: cell-based; details: Homo sapiens, HT-29, 168 h, HT29 cells, 168 h, read-out: Volasertib IC50
Protocol: (§1) HT29 cells were seeded on a 384-well plate at 3000 cells/well. After overnight adherence culture, DMSO or compound 257 or AMG650 serially diluted in a 1:5 ratio from 400 nM and a PLK1 inhibitor with a specified concentration were added. The cell viability was assessed 168 h after dosing by measuring the intracellular ATP content. […] Furthermore, interactions between the drugs were also analyzed using the BLISS independence model, and the results are shown in FIG. 15 and FIG. 16.

SK-OV-3 cells = test: Combined use of compound 257 or AMG650 with PLK1 inhibitor on SK-OV-3 cell viability, 168 h (Biological Example 21); assay type: cell-based; details: Homo sapiens, SK-OV-3, 168 h, SK-OV-3 cells, 168 h, read-out: Volasertib IC50
Protocol: as §1, with “SK—OV-3” for “HT29”, “11” for “15”, “12.” for “16.”

[5] = PO QD 14 days, AMG650/714 50 mpk, Onvasertib 20 mpk, day 15
[6] = KIF18A inhibitor AMG650 0.0001 nM
[7] = KIF18A inhibitor AMG650 0.64 nM
[8] = KIF18A inhibitor Compound 257 0.0001 nM
[9] = KIF18A inhibitor Compound 257 0.64 nM
[10] = KIF18A inhibitor Compound 257 3.2 nM
[11] = KIF18A inhibitor Compound 257 16 nM
[12] = KIF18A inhibitor Compound 257 80 nM
[13] = KIF18A inhibitor Compound 257 400 nM

Work on `COc1cc(C(=O)N[C@H]2CC[C@H](N3CCN(C)CC3)CC2)ccc1Nc1ncc2c(n1)N(C1CCCC1)CC1(CC1)C(=O)N2C` [CYC140 (Plogosertib), Plogosertib] yielded a pIC50 (HT29 cells [1]; KIF18A inhibitor AMG650 0.0001 nM, read-out: PLK1 inhibitor IC50) of 7.30, a pIC50 (HT29 cells [1]; KIF18A inhibitor AMG650 0.64 nM, read-out: PLK1 inhibitor IC50) of 7.31 and a pIC50 (HT29 cells [1]; KIF18A inhibitor AMG650 3.2 nM, read-out: PLK1 inhibitor IC50) of 7.30. For the same compound, the pIC50 (HT29 cells [1]; KIF18A inhibitor AMG650 16 nM, read-out: PLK1 inhibitor IC50) was 7.60, the pIC50 (HT29 cells [1]; KIF18A inhibitor AMG650 80 nM, read-out: PLK1 inhibitor IC50) was 8.10 and the pIC50 (HT29 cells [1]; KIF18A inhibitor AMG650 400 nM, read-out: PLK1 inhibitor IC50) was 8.46. For the same compound, the pIC50 (HT29 cells [1]; KIF18A inhibitor Compound 257 0.0001 nM, read-out: PLK1 inhibitor IC50) was 7.28, the pIC50 (HT29 cells [1]; KIF18A inhibitor Compound 257 0.64 nM, read-out: PLK1 inhibitor IC50) was 7.43 and the pIC50 (HT29 cells [1]; KIF18A inhibitor Compound 257 3.2 nM, read-out: PLK1 inhibitor IC50) was 7.81. It also gave a pIC50 (HT29 cells [1]; KIF18A inhibitor Compound 257 16 nM, read-out: PLK1 inhibitor IC50) of 8.42, a pIC50 (HT29 cells [1]; KIF18A inhibitor Compound 257 80 nM, read-out: PLK1 inhibitor IC50) of 8.80 and a pIC50 (HT29 cells [1]; KIF18A inhibitor Compound 257 400 nM, read-out: PLK1 inhibitor IC50) of 8.66.

Compound `COc1ccc(NC(=O)c2ccc(NS(=O)(=O)CCOC(C)=O)cc2N2CCC3(CC2)CC3)nc1N1CCC(F)(F)CC1` [Compound 661] has a TGI [2] of 61%.

For `COc1ccc(C(=O)Nc2ccc(NS(=O)(=O)CCOC(C)=O)cc2N2CCC3(CC2)CC3)nc1N1CCC(F)(F)CC1` [Compound 669], the TGI [2] was 30%.

Compound `COc1ccc(NC(=O)c2ccc(S(=O)(=O)NCCOC(C)=O)cc2N2CCC3(CC2)CC3)nc1N1CCC(F)(F)CC1` [Compound 677] has a TGI [2] of 55%.

In the case of `CCS(=O)(=O)Nc1ccc2c(c1)C1(CCC3(CC3)CC1)CN2C(=O)c1cccc(S(=O)(=O)NC(C)(C)C)c1` [Compound A], the “inhibitory effect on HT-29 cells, combined use with the PLK1 inhibitor compared with monotherapy” value (HT29 cells [1]; CYC140 or TAK-960, in words) was “stronger inhibitory effect”, the pIC50 (HT29 cells [1]; Homo sapiens, HT-29, 168 h, CYC140 (Plogosertib) 0.0001 nM, read-out: IC50) was 7.58 and the pIC50 (HT29 cells [1]; Homo sapiens, HT-29, 168 h, CYC140 (Plogosertib) 1.6 nM, read-out: IC50) was 7.71. The pIC50 (HT29 cells [1]; Homo sapiens, HT-29, 168 h, CYC140 (Plogosertib) 8 nM, read-out: IC50) was 7.81, the pIC50 (HT29 cells [1]; Homo sapiens, HT-29, 168 h, CYC140 (Plogosertib) 40 nM, read-out: IC50) was 8.66 and the pIC50 (HT29 cells [1]; Homo sapiens, HT-29, 168 h, TAK-960 0.0001 nM, read-out: IC50) was 7.62. The pIC50 (HT29 cells [1]; Homo sapiens, HT-29, 168 h, TAK-960 1.6 nM, read-out: IC50) was 7.76, the pIC50 (HT29 cells [1]; Homo sapiens, HT-29, 168 h, TAK-960 8 nM, read-out: IC50) was 8.38 and the pIC50 (HT29 cells [1]; Homo sapiens, HT-29, 168 h, TAK-960 40 nM, read-out: IC50) was 8.39. For the same compound, the “synergistic effect on HCT116 cell viability, combined use with the PLK1 inhibitor” value (HCT116 cells; CYC140 or TAK-960, in words) was “no significant synergistic effect”, the pIC50 (HCT116 cells; HCT116 cells, CYC140 (Plogosertib) 1.6 nM) was less than 6.40 and the pIC50 (HCT116 cells; HCT116 cells, CYC140 (Plogosertib) 8 nM) was less than 6.40. The pIC50 (HCT116 cells; HCT116 cells, CYC140 (Plogosertib) 40 nM) was less than 6.40, the pIC50 (HCT116 cells; HCT116 cells, TAK-960 0 nM) was less than 6.40 and the pIC50 (HCT116 cells; HCT116 cells, TAK-960 1.6 nM) was less than 6.40. The pIC50 (HCT116 cells; HCT116 cells, TAK-960 8 nM) was less than 6.40, the pIC50 (HCT116 cells; HCT116 cells, TAK-960 40 nM) was less than 6.40 and the pIC50 (HCT116 cells; Homo sapiens, HCT-116, HCT116 cells, CYC140 (Plogosertib) 0 nM) was less than 6.40. The “anti-proliferative activity against HCT116 cells, monotherapy” value (HCT116 cells; in words) was “did not exhibit anti-proliferative activity”.

With `CN1CCN(c2ccc(OC(F)(F)F)c(Nc3ncc4c(n3)-c3c(c(C(N)=O)nn3CCO)CC4)c2)CC1` [Onvasertib, Onvansertib] the “Tumor volume on day 1 of administration” value ([3]; PO QD 14 days, AMG650/714 50 mpk, Onvasertib 20 mpk, day 1 (baseline)) was 134 mm^3, the “TGI on day 15” value [3, 5] was 80% and the “Tumor volume on day 15 of administration” value [3, 5] was 249 mm^3. For the same compound, the “therapeutic efficacy of monotherapy in HT29-bearing mice” value ([3]; monotherapy, in words) was “relatively weak therapeutic efficacy”.

With `CC[C@@H]1C(=O)N(C)c2cnc(Nc3ccc(C(=O)N[C@H]4CC[C@H](N5CCN(CC6CC6)CC5)CC4)cc3OC)nc2N1C(C)C` [Volasertib] the pIC50 (HT29 cells [4]; [6]) was 7.64, the pIC50 (HT29 cells [4]; [7]) was 7.42 and the pIC50 (HT29 cells [4]; KIF18A inhibitor AMG650 3.2 nM) was 7.46. The pIC50 (HT29 cells [4]; KIF18A inhibitor AMG650 16 nM) was 7.71, the pIC50 (HT29 cells [4]; KIF18A inhibitor AMG650 80 nM) was 7.74 and the pIC50 (HT29 cells [4]; KIF18A inhibitor AMG650 400 nM) was 7.81. The pIC50 (HT29 cells [4]; [8]) was 7.76, the pIC50 (HT29 cells [4]; [9]) was 7.81 and the pIC50 (HT29 cells [4]; [10]) was 7.99. It also gave a pIC50 (HT29 cells [4]; [11]) of 8.92, a pIC50 (HT29 cells [4]; [12]) of 8.85 and a pIC50 (HT29 cells [4]; [13]) of 9.15. The pIC50 (SK-OV-3 cells; [6]) was 7.09, the pIC50 (SK-OV-3 cells; [7]) was 7.15 and the pIC50 (SK-OV-3 cells; KIF18A inhibitor AMG650 3.2 nM) was 7.22. For the same compound, the pIC50 (SK-OV-3 cells; KIF18A inhibitor AMG650 16 nM) was 7.42, the pIC50 (SK-OV-3 cells; KIF18A inhibitor AMG650 80 nM) was 8.00 and the pIC50 (SK-OV-3 cells; KIF18A inhibitor AMG650 400 nM) was 8.09. The pIC50 (SK-OV-3 cells; [8]) was 7.11, the pIC50 (SK-OV-3 cells; [9]) was 7.21 and the pIC50 (SK-OV-3 cells; [10]) was 7.45. For the same compound, the pIC50 (SK-OV-3 cells; [11]) was 8.00, the pIC50 (SK-OV-3 cells; [12]) was 8.24 and the pIC50 (SK-OV-3 cells; [13]) was 8.28.
